{"source": "paper PMC5218480", "about": "(PLoS ONE, 2017)", "test_system": "MV-4-11 cells", "test": "Gene expression microarray analysis (Affymetrix PrimeView) and GSEA", "assay_type": "cell-based, human", "design": "RFU PODN (11730768_x_at) / Fold change /veh PODN (11730768_x_at) / RFU LINC00158 (11744669_a_at) / Fold change /veh LINC00158 (11744669_a_at) / RFU DUSP10 (11751237_a_at) / Fold change /veh DUSP10 (11751237_a_at) / RFU ID3 (11757404_x_at) / Fold change /veh ID3 (11757404_x_at) / RFU PLEKHG5 (11737974_s_at) / Fold change /veh PLEKHG5 (11737974_s_at) / RFU LRRC4B (11730491_at) / Fold change /veh LRRC4B (11730491_at) / RFU GIMAP4 (11747438_a_at) / Fold change /veh GIMAP4 (11747438_a_at) / RFU KRT8 (11758183_x_at) / Fold change /veh KRT8 (11758183_x_at) / RFU CNN1 (11734310_a_at) / Fold change /veh CNN1 (11734310_a_at) / RFU VPS37D (11726825_at) / Fold change /veh VPS37D (11726825_at) / RFU C10orf10 (11716522_x_at) / Fold change /veh C10orf10 (11716522_x_at) / RFU KIR2DL2 /// KIR2DL4 /// KIR2DL5A /// KIR2DL5B /// KIR2DS1 /// KIR2DS2 /// KIR2DS3 /// KIR2DS4 /// KIR3DL3 /// KIR3DL3 /// KIR3DS1 (11738374_at) / Fold change /veh KIR2DL2 /// KIR2DL4 /// KIR2DL5A /// KIR2DL5B /// KIR2DS1 /// KIR2DS2 /// KIR2DS3 /// KIR2DS4 /// KIR3DL3 /// KIR3DL3 /// KIR3DS1 (11738374_at) / RFU C1QL1 (11718748_at) / Fold change /veh C1QL1 (11718748_at) / RFU TMPRSS4 (11747572_a_at) / Fold change /veh TMPRSS4 (11747572_a_at) / RFU HAMP (11756126_x_at) / Fold change /veh HAMP (11756126_x_at) / RFU RNFT2 (11725882_a_at) / Fold change /veh RNFT2 (11725882_a_at) / RFU NR4A2 (11747474_a_at) / Fold change /veh NR4A2 (11747474_a_at) / RFU ABCC12 (11746883_a_at) / Fold change /veh ABCC12 (11746883_a_at) / RFU TMEM136 (11760407_x_at) / Fold change /veh TMEM136 (11760407_x_at) / RFU CLDN22 /// WWC2 (11732394_at) / Fold change /veh CLDN22 /// WWC2 (11732394_at) / RFU HLA-DPB1 (11760878_x_at) / Fold change /veh HLA-DPB1 (11760878_x_at) / RFU SPINT1 (11716480_a_at) / Fold change /veh SPINT1 (11716480_a_at) / RFU GAP43 (11754022_s_at) / Fold change /veh GAP43 (11754022_s_at) / RFU A4GNT (11735810_at) / Fold change /veh A4GNT (11735810_at) / RFU PRB3 (11715151_x_at) / Fold change /veh PRB3 (11715151_x_at) / RFU TUBB4B (11761932_at) / Fold change /veh TUBB4B (11761932_at) / RFU CAPN14 (11732068_a_at) / Fold change /veh CAPN14 (11732068_a_at) / RFU TMCC2 (11721928_a_at) / Fold change /veh TMCC2 (11721928_a_at) / RFU IRGQ (11745062_a_at) / Fold change /veh IRGQ (11745062_a_at) / RFU FAM174B (11720279_a_at) / Fold change /veh FAM174B (11720279_a_at) / RFU TMPRSS4 (11748680_a_at) / Fold change /veh TMPRSS4 (11748680_a_at) / RFU FAM212B (11763350_a_at) / Fold change /veh FAM212B (11763350_a_at) / RFU PLEKHG5 (11743358_a_at) / Fold change /veh PLEKHG5 (11743358_a_at) / RFU ZSCAN30 (11745921_a_at) / Fold change /veh ZSCAN30 (11745921_a_at) / RFU CMKLR1 (11741424_a_at) / Fold change /veh CMKLR1 (11741424_a_at) / RFU LOC101060620 /// MAPK8IP1 (11723275_at) / Fold change /veh LOC101060620 /// MAPK8IP1 (11723275_at) / RFU SPTSSB (11747773_x_at) / Fold change /veh SPTSSB (11747773_x_at) / RFU PRSS12 (11739890_at) / Fold change /veh PRSS12 (11739890_at) / RFU BIN1 (11741810_x_at) / Fold change /veh BIN1 (11741810_x_at) / RFU WNT11 (11732464_a_at) / Fold change /veh WNT11 (11732464_a_at) / RFU C10orf10 (11716521_a_at) / Fold change /veh C10orf10 (11716521_a_at) / RFU C5orf56 (11738089_at) / Fold change /veh C5orf56 (11738089_at) / RFU CYB561 (11721691_x_at) / Fold change /veh CYB561 (11721691_x_at) / RFU ANKRD19P (11752326_a_at) / Fold change /veh ANKRD19P (11752326_a_at) / RFU OR2T12 /// OR2T33 /// OR2T8 (11738714_s_at) / Fold change /veh OR2T12 /// OR2T33 /// OR2T8 (11738714_s_at) / RFU VCAN (11748164_a_at) / Fold change /veh VCAN (11748164_a_at) / RFU JSRP1 (11732532_at) / Fold change /veh JSRP1 (11732532_at) / RFU KRTAP10-11 (11738290_x_at) / Fold change /veh KRTAP10-11 (11738290_x_at) / RFU MYO3A (11730013_a_at) / Fold change /veh MYO3A (11730013_a_at) / RFU EBF3 (11725865_a_at) / Fold change /veh EBF3 (11725865_a_at) / RFU CAMK2N1 (11719241_x_at) / Fold change /veh CAMK2N1 (11719241_x_at) / RFU C5orf56 (11738088_a_at) / Fold change /veh C5orf56 (11738088_a_at) / RFU OLFML3 (11715873_a_at) / Fold change /veh OLFML3 (11715873_a_at) / RFU LOC100653217 /// NTM (11731650_a_at) / Fold change /veh LOC100653217 /// NTM (11731650_a_at) / RFU MAPK11 (11762145_a_at) / Fold change /veh MAPK11 (11762145_a_at) / RFU FIZ1 (11724087_x_at) / Fold change /veh FIZ1 (11724087_x_at) / RFU OASL (11726364_x_at) / Fold change /veh OASL (11726364_x_at) / RFU SOX15 (11748057_x_at) / Fold change /veh SOX15 (11748057_x_at) / RFU CD79A (11719716_a_at) / Fold change /veh CD79A (11719716_a_at) / RFU HIST1H1D (11736915_at) / Fold change /veh HIST1H1D (11736915_at) / RFU CASKIN2 (11723855_a_at) / Fold change /veh CASKIN2 (11723855_a_at) / RFU LOC730098 (11760151_x_at) / Fold change /veh LOC730098 (11760151_x_at) / RFU OR4N2 (11742367_at) / Fold change /veh OR4N2 (11742367_at) / RFU PRRT2 (11749266_a_at) / Fold change /veh PRRT2 (11749266_a_at) / RFU SNX32 (11753110_a_at) / Fold change /veh SNX32 (11753110_a_at) / RFU CDHR5 (11726645_a_at) / Fold change /veh CDHR5 (11726645_a_at) / RFU RCAN1 (11760418_a_at) / Fold change /veh RCAN1 (11760418_a_at) / RFU FAM167A (11723789_a_at) / Fold change /veh FAM167A (11723789_a_at) / RFU FAM26E (11764081_at) / Fold change /veh FAM26E (11764081_at) / RFU ISYNA1 (11749810_s_at) / Fold change /veh ISYNA1 (11749810_s_at) / RFU ACY1 (11761880_at) / Fold change /veh ACY1 (11761880_at) / RFU 11764098_at / Fold change /veh 11764098_at / RFU SAMD14 (11745864_x_at) / Fold change /veh SAMD14 (11745864_x_at) / RFU NPB (11741838_a_at) / Fold change /veh NPB (11741838_a_at) / RFU TMPRSS6 (11731388_a_at) / Fold change /veh TMPRSS6 (11731388_a_at) / RFU KRTAP10-2 (11738614_at) / Fold change /veh KRTAP10-2 (11738614_at) / RFU ARHGAP8 /// PRR5-ARHGAP8 (11727945_x_at) / Fold change /veh ARHGAP8 /// PRR5-ARHGAP8 (11727945_x_at) / RFU KRTAP5-7 /// NADSYN1 (11734609_at) / Fold change /veh KRTAP5-7 /// NADSYN1 (11734609_at) / RFU RASL12 (11751679_a_at) / Fold change /veh RASL12 (11751679_a_at) / RFU CDKN2B (11736163_a_at) / Fold change /veh CDKN2B (11736163_a_at) / RFU PRF1 (11729649_at) / Fold change /veh PRF1 (11729649_at) / RFU, ZNF638 /// ZNF638-IT1 / Fold change vs veh, ZNF638 /// ZNF638-IT1 / RFU, PANK3 / Fold change vs veh, PANK3 / RFU, SH3YL1 / Fold change vs veh, SH3YL1 / RFU, ZEB2 / Fold change vs veh, ZEB2 / RFU, NRIP1 / Fold change vs veh, NRIP1 / RFU, PTTG1IP / Fold change vs veh, PTTG1IP / RFU, CAPN2 / Fold change vs veh, CAPN2 / RFU, MED14 / Fold change vs veh, MED14 / RFU, SNORA58 / Fold change vs veh, SNORA58 / RFU, C1orf63 / Fold change vs veh, C1orf63 / RFU, LRRFIP1 / Fold change vs veh, LRRFIP1 / RFU, NDUFAF7 / Fold change vs veh, NDUFAF7 / RFU, SLC12A2 / Fold change vs veh, SLC12A2 / RFU, IBTK / Fold change vs veh, IBTK / RFU, ESF1 / Fold change vs veh, ESF1 / Fold change vs veh, TMEM50B / RFU, TAOK1 / Fold change vs veh, TAOK1 / RFU, ACBD3 / Fold change vs veh, ACBD3 / RFU, TMA16 / Fold change vs veh, TMA16 / RFU, RWDD3 / Fold change vs veh, RWDD3 / RFU, BCAT1 / Fold change vs veh, BCAT1 / RFU, EDEM3 / Fold change vs veh, EDEM3 / RFU, TMEM33 / Fold change vs veh, TMEM33 / RFU, WDR75 / Fold change vs veh, WDR75 / RFU, AHCTF1 / Fold change vs veh, AHCTF1 / RFU, TFRC / Fold change vs veh, TFRC / RFU, ZDHHC17 / Fold change vs veh, ZDHHC17 / RFU, NOM1 / Fold change vs veh, NOM1 / RFU, ARL8B / Fold change vs veh, ARL8B / RFU, ZBTB11 / Fold change vs veh, ZBTB11 / RFU, TAMM41 / Fold change vs veh, TAMM41 / RFU, KIAA1704 /// LOC100996395 / Fold change vs veh, KIAA1704 /// LOC100996395 / RFU, ING1 / Fold change vs veh, ING1 / RFU, TRMT61B / Fold change vs veh, TRMT61B / RFU, FUBP3 / Fold change vs veh, FUBP3 / RFU, TP53 / Fold change vs veh, TP53 / RFU, TNKS2 / Fold change vs veh, TNKS2 / RFU, ZFP14 / Fold change vs veh, ZFP14 / RFU, ACTR2 / Fold change vs veh, ACTR2 / RFU, PPP3R1 / Fold change vs veh, PPP3R1 / RFU, PIK3R1 / Fold change vs veh, PIK3R1 / RFU, HNRNPA1 / Fold change vs veh, HNRNPA1 / RFU, RNF170 / Fold change vs veh, RNF170 / RFU, ZNF28 / Fold change vs veh, ZNF28 / RFU, RNGTT / Fold change vs veh, RNGTT / RFU, OGT / Fold change vs veh, OGT / RFU, BRD1 / Fold change vs veh, BRD1 / RFU, MARS / Fold change vs veh, MARS / RFU, ZNF655 / Fold change vs veh, ZNF655 / RFU, FAHD1 / Fold change vs veh, FAHD1 / RFU, BDP1 / Fold change vs veh, BDP1 / RFU, LRRCC1 / Fold change vs veh, LRRCC1 / RFU, ARID1A / Fold change vs veh, ARID1A / RFU, ZNF146 / Fold change vs veh, ZNF146 / RFU, ZNF330 / Fold change vs veh, ZNF330 / RFU, GPN3 / Fold change vs veh, GPN3 / RFU, C9orf123 / Fold change vs veh, C9orf123 / RFU, N4BP2L2 / Fold change vs veh, N4BP2L2 / RFU, ARFIP1 / Fold change vs veh, ARFIP1 / RFU, FAM179B / Fold change vs veh, FAM179B / RFU, BCL10 / Fold change vs veh, BCL10 / RFU, UHRF1BP1L / Fold change vs veh, UHRF1BP1L / RFU, BET1 / Fold change vs veh, BET1 / RFU, CNOT2 / Fold change vs veh, CNOT2 / RFU, ZNF268 / Fold change vs veh, ZNF268 / Fold change vs veh, ZNF507 / RFU, DGCR2 / Fold change vs veh, DGCR2 / RFU, WDSUB1 / Fold change vs veh, WDSUB1 / Fold change vs veh, HSP90B1 /// MIR3652 / RFU, ADSS / Fold change vs veh, ADSS / RFU, GK / Fold change vs veh, GK / RFU, ZNF148 / Fold change vs veh, ZNF148 / RFU, TAF9 / Fold change vs veh, TAF9 / RFU, SLC1A5 / Fold change vs veh, SLC1A5 / RFU, SLMO2 / Fold change vs veh, SLMO2 / RFU, ABCC4 / Fold change vs veh, ABCC4 / RFU, LOC101060439 /// RAP1B / Fold change vs veh, LOC101060439 /// RAP1B / RFU, RFX7 / Fold change vs veh, RFX7 / RFU, GTPBP10 / Fold change vs veh, GTPBP10 / RFU, CNEP1R1 / Fold change vs veh, CNEP1R1 / RFU, BIVM-ERCC5 /// ERCC5 / Fold change vs veh, BIVM-ERCC5 /// ERCC5 / RFU, ILF3 / Fold change vs veh, ILF3 / RFU 11762660_at / Fold change /veh 11762660_at / RFU VCAN (11757783_s_at) / Fold change /veh VCAN (11757783_s_at) / RFU DDX43 (11728927_at) / Fold change /veh DDX43 (11728927_at) / RFU KRT8 (11758188_x_at) / Fold change /veh KRT8 (11758188_x_at) / RFU NKD1 (11759106_at) / Fold change /veh NKD1 (11759106_at) / RFU SRD5A1 (11742802_a_at) / Fold change /veh SRD5A1 (11742802_a_at) / RFU TPSAB1 /// TPSB2 (11721975_s_at) / Fold change /veh TPSAB1 /// TPSB2 (11721975_s_at) / RFU GSTM3 (11746129_a_at) / Fold change /veh GSTM3 (11746129_a_at) / RFU IL23R (11737362_x_at) / Fold change /veh IL23R (11737362_x_at) / RFU TMEM51 (11727254_a_at) / Fold change /veh TMEM51 (11727254_a_at) / RFU PIWIL2 (11732686_x_at) / Fold change /veh PIWIL2 (11732686_x_at) / RFU ORM1 (11744905_x_at) / Fold change /veh ORM1 (11744905_x_at) / RFU CCDC152 (11743942_at) / Fold change /veh CCDC152 (11743942_at) / RFU ECM1 (11717891_a_at) / Fold change /veh ECM1 (11717891_a_at) / RFU IL23R (11748794_a_at) / Fold change /veh IL23R (11748794_a_at) / RFU TNFAIP8L3 (11732012_x_at) / Fold change /veh TNFAIP8L3 (11732012_x_at) / RFU MBOAT4 (11741988_at) / Fold change /veh MBOAT4 (11741988_at) / RFU 11764193_at / Fold change /veh 11764193_at / RFU TMEM53 (11763286_at) / Fold change /veh TMEM53 (11763286_at) / RFU MAGEB2 (11727129_at) / Fold change /veh MAGEB2 (11727129_at) / RFU TMEM200A (11744735_a_at) / Fold change /veh TMEM200A (11744735_a_at) / RFU CCDC152 (11751479_a_at) / Fold change /veh CCDC152 (11751479_a_at) / RFU FAM211A (11726209_a_at) / Fold change /veh FAM211A (11726209_a_at) / RFU RGS16 (11746705_a_at) / Fold change /veh RGS16 (11746705_a_at) / RFU VCAN (11755009_s_at) / Fold change /veh VCAN (11755009_s_at) / RFU RHOB (11743442_s_at) / Fold change /veh RHOB (11743442_s_at) / RFU RGS16 (11720943_a_at) / Fold change /veh RGS16 (11720943_a_at) / RFU RGS16 (11720944_at) / Fold change /veh RGS16 (11720944_at) / RFU, VPS4B / Fold change vs veh, VPS4B / RFU, CREB1 / Fold change vs veh, CREB1 / RFU, DNAJC13 / Fold change vs veh, DNAJC13 / RFU, GNAQ / Fold change vs veh, GNAQ / RFU, CDK5R1 / Fold change vs veh, CDK5R1 / RFU, ZRANB3 / Fold change vs veh, ZRANB3 / RFU, CUL4A / Fold change vs veh, CUL4A / RFU, CCNY / Fold change vs veh, CCNY / RFU, UFL1 / Fold change vs veh, UFL1 / RFU, COG3 / Fold change vs veh, COG3 / RFU, DIAPH2 / Fold change vs veh, DIAPH2 / RFU, SKA2 / Fold change vs veh, SKA2 / RFU, AFF3 / Fold change vs veh, AFF3 / RFU, LMF1 / Fold change vs veh, LMF1 / RFU, IPO11 / Fold change vs veh, IPO11 / RFU, DFFB / Fold change vs veh, DFFB / RFU, FOXP1 / Fold change vs veh, FOXP1 / RFU, CARD8 / Fold change vs veh, CARD8 / RFU, STRN3 / Fold change vs veh, STRN3 / RFU, ADK / Fold change vs veh, ADK / RFU, RASSF2 / Fold change vs veh, RASSF2 / RFU, WIPF1 / Fold change vs veh, WIPF1 / RFU, LARP1B / Fold change vs veh, LARP1B / RFU, RASA1 / Fold change vs veh, RASA1 / RFU, RB1 / Fold change vs veh, RB1 / RFU, PPFIA1 / Fold change vs veh, PPFIA1 / RFU, MAT2A / Fold change vs veh, MAT2A / RFU, CCT5 / Fold change vs veh, CCT5 / RFU, WDR92 / Fold change vs veh, WDR92 / RFU, CUX1 / Fold change vs veh, CUX1 / RFU, TTC7A / Fold change vs veh, TTC7A / RFU, TMEM135 / Fold change vs veh, TMEM135 / RFU, DEPTOR / Fold change vs veh, DEPTOR / RFU, CPM / Fold change vs veh, CPM / RFU, DNAJB6 / Fold change vs veh, DNAJB6 / RFU, CACNA2D3 / Fold change vs veh, CACNA2D3 / RFU, DTX4 / Fold change vs veh, DTX4 / RFU, TFCP2 / Fold change vs veh, TFCP2 / RFU, GMCL1 /// GMCL1P1 / Fold change vs veh, GMCL1 /// GMCL1P1 / RFU, AEBP2 / Fold change vs veh, AEBP2 / RFU, SNHG1 /// SNORD22 /// SNORD25 /// SNORD26 /// SNORD27 /// SNORD28 /// SNORD29 /// SNORD31 / Fold change vs veh, SNHG1 /// SNORD22 /// SNORD25 /// SNORD26 /// SNORD27 /// SNORD28 /// SNORD29 /// SNORD31 / Fold change (Aza/veh), C12orf56 (ProbeSet 11735607_a_at) / Fold change (ACY-1035/veh), C12orf56 (ProbeSet 11735607_a_at) / Fold change (Aza/veh), FGFR1OP (ProbeSet 11751329_s_at) / Fold change (ACY-1035/veh), FGFR1OP (ProbeSet 11751329_s_at) / Fold change (Aza/veh), VPS36 (ProbeSet 11739960_a_at) / Fold change (ACY-1035/veh), VPS36 (ProbeSet 11739960_a_at) / RFU SYPL1 (11715823_x_at) / Fold change /veh SYPL1 (11715823_x_at) / RFU IGFBP7 (11715501_s_at) / Fold change /veh IGFBP7 (11715501_s_at) / RFU REEP3 (11722064_at) / Fold change /veh REEP3 (11722064_at) / RFU IGLL1 (11728026_x_at) / Fold change /veh IGLL1 (11728026_x_at): dose or concentration left out as unconfirmed", "conditions": "MV-4-11 cells, 48 hours", "data": [{"smiles": "Nc1ncn([C@@H]2O[C@H](CO)[C@@H](O)[C@H]2O)c(=O)n1", "note": "[azacitidine]", "values": [{"measurement": "Fold change /veh CAPN14 (11732068_a_at)", "result": 1.07}]}]}
